# Assay results published in article PMC6132986, “Assessing the toxicity of thiamethoxam, in natural LUFA 2.2 soil, through three generations of Folsomia candida” (Ecotoxicology (London, England), 2018).
# Several values for one entry are separate records, joined by “and”; a condition that tells them apart may be missing. Equal values may be shown once. Read-outs that look alike come from different tables or passages of the source.
# Assays:
# [1] = tested on: Folsomia candida; conditions: cited from earlier work
# [2] = tested on: Folsomia candida; experiment: Folsomia candida multigeneration (P, F1, F2) survival and reproduction test in freshly spiked LUFA 2.2 soil; type: in vivo; conditions: nominal concentrations
# Description: All tests were performed using natural standard LUFA 2.2 soil (LUFA Speyer, Germany), having approximately 1.6% organic carbon, water holding capacity (WHC) of 45%, and soil pH (0.01 M CaCl2) measured in a preliminary test, ranging between 5.03 and 5.87.
# Stock solutions of both compounds were prepared in milli-Q water in order to spike the chemicals in the test soil and at the same time bring its moisture content to 50% of the water holding capacity (WHC). The concentration range used for both compounds was: Control −0.04 −0.12 −0.37 −1.1 −3.3 −10 mg a.s./kg dry soil. Due to the toxic effect of the neonicotinoids, the three highest concentrations had to be dropped for F1 and F2 generations. Tests were performed in 100 ml glass jars, containing 30 g moist soil, using five replicate test jars with animals, and two replicates containing approximately 15 g of soil each, without animals (soil analysis). All the test jars were weighed at the start of the test, so the water loss could be checked and replenished, if needed, on a weekly basis.
# Folsomia candida Willem 1902 is a cosmopolitan arthropod, belonging to the Collembola order, which is phylogenetically related to the Insecta. The family Isotomidae have a ventral tube or collophore which is involved in the exchange of fluids with the external environment, being an important route of exposure to contaminants present in the pore water. Sexual maturity of F. candida is achieved between 21 to 24 days after hatching (sixth instar), and each individual can lay about 30 to 50 eggs per batch (Fountain and Hopkin [2005]). Adults of this species were taken from cultures at the Department of Ecological Science at the Vrije Universiteit in Amsterdam. In order to obtain synchronized animals, adults were transferred from the culture to 125 ml translucent plastic boxes with a 2 cm layer of plaster of Paris and activated charcoal (8:1), moistened with water, and left for a period of 2–3 days to lay eggs, after which they were removed. The eggs were incubated under a 12 h light/12 h dark regime at 20°C and 75% relative humidity, where they hatched. Juveniles of 10–12 days old were used for starting the test for the parental (P) generation.
# Ten age-synchronized animals (10–12 days old) were added to the replicate test jars in generation P. For generations F1 and F2 the age of the animals transferred was around 8–9 days. […] The same procedure was performed for ending the tests with the F1 (after 35–36 days) and F2 (28 days) generations. At the end of the tests, the jars were flooded with water to allow the animals to float and being photographed using a Nikon COOLPIX P510 camera. The images were analysed using the software ImageJ, a Java-based processing program adjusted for counting the animals. For the P and F1 generations, only the juveniles produced in all replicates of each concentration were transferred, using a sieve, to a single container with a plaster of Paris bottom, and left overnight in a climate room, at 20 ± 2 °C, with a 75% relative humidity and a photoperiod of 16:8 h […]. On the following day, batches of 10 randomly selected animals were transferred to jars, with their respective concentration, filled with soil freshly spiked, and covered with an opaque black plastic lid, loosely attached to the rim to allow for aeration. At the start and every week a few grains of dry baker’s yeast (Instant yeast from Algist Bruggeman N.V, Ghent, Belgium) and water were added to the test vessels if needed.
# All the dose-response data was analysed using the package “drc”(dose response curve) in the software R, using a general model fitting function–drm, with the option for model select (Ritz and Streibig [2005]). The endpoints LC50, addressing the effects on adult survival, and ECx, addressing sub-lethal effects on the juvenile population were expressed on the basis of nominal soil concentrations.
# [3] = Chemical analysis (LC-MSMS) and degradation of thiamethoxam in LUFA 2.2 soil; type: physicochemical
# Description: The samples were analysed for thiamethoxam by the commercial certified analytical laboratory Groen Agro Control in Delfgauw, The Netherlands, using LC-MSMS. Detection limit was 0.01 mg/kg dry soil.
# Using data on the measured concentrations of thiamethoxam, half-life (DT50) values were estimated assuming first order degradation kinetics. The equation C = C0 × e^−k×t was fitted to the data, with C = concentration at time t in days, C0 is concentration at t = 0 and k = degradation rate constant (day^−1). DT50 was derived as ln(2)/k.
# [4] = pH 7, 20°C; ref Jeschke et al. [2011]; cited from earlier work
# [5] = cited from earlier work
# [6] = LUFA 2.2 soil, ref De Lima e Silva et al. [2017], van Gestel et al. [2017]
# [7] = Lufa 2.2 soil, ref de Lima e Silva et al. [2017]
# [8] = Lufa 2.2 soil, ref van Gestel et al. [2017]
# [9] = sphagnum peat (10%), kaolinite clay (20%), quartz sand (70%), ref Reynolds [2008]
# [10] = F1 generation, 35-36 days exposure
# [11] = F1 generation, 35-36 days exposure, listed as pure thiamethoxam
# [12] = F2 generation, 28 days exposure
# [13] = F2 generation, 28 days exposure, listed as pure thiamethoxam
smiles,measurement,setting,value
"O=[N+]([O-])NC1=NCCN1Cc1ccc(Cl)nc1 [Imidacloprid, imidacloprid]",EC50,[1]; [6],0.26–0.29 mg a.s./kg dry soil
same,LC50,[1]; [6],0.44–0.47 mg a.s./kg dry soil
same,EC50,[1]; [7],0.26 mg a.s./kg
same,LC50,[1]; [7],0.47 mg a.s./kg
same,EC50,[1]; [8],0.29 mg a.s./kg
same,LC50,[1]; [8],0.44 mg a.s./kg
same,EC50,[1]; [9],0.26 mg a.s./kg
same,LC50,[1]; [9],0.86 mg a.s./kg
"CN1COCN(Cc2cnc(Cl)s2)/C1=N\[N+](=O)[O-] [Thiamethoxam Pure, thiamethoxam]",EC50 (reproduction),[2]; [10],0.23 (0–0.52) mg a.s./kg dry soil
same,LC50 (adult survival),[2]; [10],>0.37 mg a.s./kg dry soil
same,EC50 (reproduction),[2]; [11],0.23 mg a.s./kg dry soil
same,LC50 (adult survival),[2]; [11],> 0.37 mg a.s./kg dry soil
same,EC10 (reproduction),[2]; F1 generation,0.06 (0–0.14) mg a.s./kg dry soil
same,EC20 (reproduction),[2]; F1 generation,0.09 (0–0.20) mg a.s./kg dry soil
same,EC50 (reproduction),[2]; [12],0.30 (0.09–0.50) mg a.s./kg dry soil
same,LC50 (adult survival),[2]; [12],>0.37 mg a.s./kg dry soil
same,EC50 (reproduction),[2]; [13],0.30 mg a.s./kg dry soil
same,LC50 (adult survival),[2]; [13],> 0.37 mg a.s./kg dry soil
same,EC10 (reproduction),[2]; F2 generation,0.15 (0–0.64) mg a.s./kg dry soil
same,EC20 (reproduction),[2]; F2 generation,0.20 (0–0.63) mg a.s./kg dry soil
same,EC50 (reproduction),"[2]; Parental generation, 28 days exposure (Actara 27 days)",0.23 (0.20–0.30) mg a.s./kg dry soil
same,LC50 (adult survival),"[2]; Parental generation, 28 days exposure (Actara 27 days), 95% CI in brackets",0.32 (0.30–0.40) mg a.s./kg dry soil
same,LC50 (adult survival),"[2]; Parental generation, 28 days exposure (Actara 27 days), 95% CI in brackets, listed as pure thiamethoxam",0.32–0.35 mg a.s./kg dry soil and 0.32 mg a.s./kg dry soil
same,EC50 (reproduction),"[2]; Parental generation, 28 days exposure (Actara 27 days), listed as pure thiamethoxam",0.23–0.25 mg a.s./kg dry soil
same,EC10 (reproduction),[2]; Parental generation,0.07 (0.03–0.10) mg a.s./kg dry soil
same,EC20 (reproduction),[2]; Parental generation,0.12 (0.070–0.20) mg a.s./kg dry soil
same,half-life,"[3]; LUFA 2.2 soil, average over nominal 0.12-1.1 mg/kg dry soil, read-out: DT50 (half-life in soil), average (converted)",139 days
same,"DT50 (half-life in soil), range over the concentrations","[3]; LUFA 2.2 soil, nominal 0.12-1.1 mg/kg dry soil",112 to 165 days
same,half-life,"[3]; LUFA 2.2 soil, nominal 0.12-1.1 mg/kg dry soil, read-out: DT50 (half-life in soil), range over the concentrations",112 to 156 days
same,Concentration in soil as % of the nominal,"[3]; first day of the experiment (t = 0), pure and Actara treatments together",75–100%
same,half-life at 0.12 mg/kg dry soil,"[3]; nominal 0.12 mg/kg dry soil, LUFA 2.2 soil, first order degradation kinetics, read-out: DT50 (half-life in soil) (converted)",165 days
same,half-life at 0.37 mg/kg dry soil,"[3]; nominal 0.37 mg/kg dry soil, LUFA 2.2 soil, first order degradation kinetics, read-out: DT50 (half-life in soil) (converted)",140 days
same,half-life at 1.1 mg/kg dry soil,"[3]; nominal 1.1 mg/kg dry soil, LUFA 2.2 soil, first order degradation kinetics, read-out: DT50 (half-life in soil) (converted)",112 days
same,Recovery Rate,"[3]; t = 0, nominal 0.12 mg/kg dry soil",75%
same,Measured Concentration of thiamethoxam in soil,"[3]; t = 0, nominal 0.12 mg/kg dry soil, LUFA 2.2 soil",0.09 mg/kg dry soil
same,Recovery Rate,"[3]; t = 0, nominal 0.37 mg/kg dry soil",84%
same,Measured Concentration of thiamethoxam in soil,"[3]; t = 0, nominal 0.37 mg/kg dry soil, LUFA 2.2 soil",0.31 mg/kg dry soil
same,Recovery Rate,"[3]; t = 0, nominal 1.1 mg/kg dry soil",85%
same,Measured Concentration of thiamethoxam in soil,"[3]; t = 0, nominal 1.1 mg/kg dry soil, LUFA 2.2 soil",0.94 mg/kg dry soil
same,Recovery Rate,"[3]; t = 28 days, nominal 0.12 mg/kg dry soil",66%
same,Measured Concentration of thiamethoxam in soil,"[3]; t = 28 days, nominal 0.12 mg/kg dry soil, LUFA 2.2 soil",0.08 mg/kg dry soil
same,Measured Concentration of thiamethoxam in soil,"[3]; t = 28 days, nominal 0.37 mg/kg dry soil, LUFA 2.2 soil",0.27 mg/kg dry soil
same,Recovery Rate,"[3]; t = 28 days, nominal 1.1 mg/kg dry soil",72%
same,Measured Concentration of thiamethoxam in soil,"[3]; t = 28 days, nominal 1.1 mg/kg dry soil, LUFA 2.2 soil",0.79 mg/kg dry soil
same,Log KOW,[4],−0.13
same,octanol-water partition coefficient,[4],0.741
same,half-life in soil,[5]; ref Bonmatin et al. [2015],≤ 355 days
N#C/N=C1\SCCN1Cc1ccc(Cl)nc1 [thiacloprid],half-life in soil,[5]; ref Van Gestel et al. [2017],10 to 12 days
